For the experiment, the system named is 485368-065-R4-J2-PDC spheroids with HUVEC/MSC, viability. The experiment is described as follows: Anticancer human tumor 485368-065-R4-J2-PDC patient-derived pancreatic carcinoma cell line growth inhibition [CLK]. The conditions noted are these: for viability, T/C: stronger effect = lower value; for IC50: curve of compound. The source says:
A high-throughput screen of multi-cell type tumor spheroids was designed to identify active combinations of […] and targeted small molecules. Complex spheroids include a stromal component modeled by human endothelial cells (HUVEC) and fibroblasts modeled by human mesenchymal stem cells (MSCs). The concentration ranges selected for each drug and investigational agent were based upon clinically achievable concentrations if the clinical Cmax of the agent was known.
Compounds. The drugs and investigational agents: cirtuvivint (SM08502; NSC835563), CC-671 (NSC850746), vemurafenib (NSC761431), tapotoclax (NSC804041), sotorasib (NSC818433), adagrasib (NSC831453), MRTX-1133 (NSC836407), BAY2416964 (NSC825713), copanlisib (NSC816437), inavolisib (NSC800729), abemaciclib (NSC768073), osimertinib (NSC779217), entinostat (NSC756642), eltanexor (KPT-8602, NSC794443), venetoclax (NSC766270), ceralasertib (NSC777638), bortezomib (NSC756655), olaparib (NSC753686), talazoparib (NSC767125), alisertib (NSC759677), peposertib (NSC802822), gemcitabine (NSC613327), 5-fluorouracil (NSC19893), SN-38 (NSC673596), oxaliplatin (NSC266046), paclitaxel (NSC125973), and doxorubicin (NSC123127), were obtained from the National Cancer Institute (NCI) Developmental Therapeutics Program Chemical Repository. The FDA-approved anticancer drug set is available from the Developmental Therapeutics Program at https://dtp.cancer.gov/organization/dscb/obtaining/available plates.htm. […] The stock solutions were prepared in dimethyl sulfoxide (DMSO, Sigma-Aldrich, St. Louis, MO, cat. D2650), except for the platinum complexes which were prepared in saline (Quality Biological, Gaithersburg, MD, cat. 114-055-101), at 800-fold the tested concentration and stored at -70 degrees C prior to their use. All drugs and investigational agents were tested over a range starting from a high concentration at or near the clinical Cmax and decreasing in half-log increments. If the clinical Cmax for an agent had not been determined, the highest concentration tested was 10 microM.
Cell Culture. All cells were maintained in an incubator at 37 degrees C and 5% CO2 with 95% humidity. The PDC lines were cultured according to standard operating procedures established by the NCI PDMR. Briefly, all PDCs were thawed and cultured in Matrigel-coated flasks prepared with a working solution of 1X Ham's F-12 nutrient mix, without supplementation (Invitrogen, Waltham, MA, cat. 11765054), 100 U/mL penicillin-streptomycin (Invitrogen, cat. 15140122), and 2.5% Matrigel (Corning Inc., Corning, NY, cat. 354248) for the first three passages. The 947758-054-R-J2-PDC line was cultured in 6B/Colon 1A media, which includes advanced DMEM/F-12 (Thermo Fisher Scientific, cat. 12634028), 10 mM HEPES (Thermo Fisher Scientific, cat. 15630080), 1X GlutaMAX supplement (Thermo Fisher Scientific, cat. 35050061), 0.1 mg/mL primocin (InvivoGen, cat. ant-pm-2), 10% defined fetal bovine serum, heat inactivated (HyClone Laboratories Inc., cat. SH30070.03HI), 1.25 mM N-Acetyl-L-cysteine (Sigma-Aldrich, cat. A9165), 10 mM nicotinamide (Sigma-Aldrich, cat. N0636), 1X B-27 supplement (Thermo Fisher Scientific, cat. 17504044), 1X N-2 supplement (Thermo Fisher Scientific, cat. 17502048), and 10 microM Y-27632 dihydrochloride (Tocris Bioscience, cat. 1254). The 876862-298-R-J1-PDC was cultured in 6E media, which includes all 6B/Colon 1A media components plus 50% L-WRN conditioned media (ATCC, cat. CRL-3276), 50 ng/mL recombinant human EGF recombinant protein (hEGF; Thermo Fisher Scientific, cat. PHG0311), 10 ng/mL recombinant human fibroblast growth factor 10 (hGFG-10; PeproTech, cat. 100-26), 1 ng/mL recombinant human fibroblast growth factor 2 (hFGF-2; PeproTech, cat. 100-18B), and 1 µM prostaglandin E2 (PGE2; Tocris, cat. 2296). The 227483-062-R1-J1-PDC line was cultured in Panc media, containing all 6E components except hFGF-2, with the addition of 500 nM SB-431542 (Selleckchem, cat. S1067) and 10 nM gastrin (Tocris, cat. 3006). […]

“And” between values parts separate entries of the source, which are not always exact repeats. Equal values may be shown once. Where only a bound is given, the exact number is not on record here.
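Note: spheroids exposed to compounds for seven days.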
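Throughout, for viability, T/C: 100% = DMSO vehicle control wells.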

For the molecule `CC(=O)O[C@H]1C(=O)[C@@]2(C)[C@H]([C@H](OC(=O)c3ccccc3)[C@]3(O)C[C@H](OC(=O)[C@H](O)[C@@H](NC(=O)c4ccccc4)c4ccccc4)C(C)=C1C3(C)C)[C@]1(OC(C)=O)CO[C@@H]1C[C@@H]2O`, the viability, T/C runs as follows: (compound 0.0316 µM) 58.2% and 59.8%; (compound 0.1 µM) 50.1% and 56.1%; (compound 0.316 µM) 49% and 52.2%; (compound 1 µM) 48.5% and 43.6%; (compound 3.16 µM) 49.9% and 52.5%; (compound 10 µM) 48.8% and 65.5%.
Turning to `CC1(C)CCC(CN2CCN(c3ccc(C(=O)NS(=O)(=O)c4ccc(NCC5CCOCC5)c([N+](=O)[O-])c4)c(Oc4cnc5[nH]ccc5c4)c3)CC2)=C(c2ccc(Cl)cc2)C1`, the IC50 was 7.56 µM and 7.07 µM. Also, under “compound 0.0316 µM”, the viability, T/C was 94.5% and 89%. Besides, under “compound 0.1 µM”, the viability, T/C was 101% and 106%. Moreover, the viability, T/C (compound 0.316 µM) is 98.6% and 95%. Also, the viability, T/C (compound 1 µM) is 100% and 93.7%. Also, under “compound 3.16 µM”, the viability, T/C is 120% and 119%. Also, the viability, T/C (compound 10 µM) was 33.1% and 28%.
Consider `CC1COCCN1c1cc(C2(S(C)(=N)=O)CC2)nc(-c2ccnc3[nH]ccc23)n1` (configuration not stated), for which the IC50 was more than 10 µM. Also, the viability, T/C (compound 0.0316 µM) is 91.5% and 90.7%. The viability, T/C (compound 0.1 µM) is 97.5% and 93.1%. Under “compound 0.316 µM”, the viability, T/C is 94.5% and 104%. Besides, for the setting “compound 1 µM”, the viability, T/C is 108% and 91.3%. Also, the viability, T/C (compound 3.16 µM) is 109% and 108%. In addition, the viability, T/C (compound 10 µM) is 102% and 113%.
In the case of `COc1ccc([C@@H](O)c2cc(-c3ncnc4cc(N5CCOCC5)ccc34)c(F)cc2Cl)nn1`, the IC50 was more than 10 µM. Also, the viability, T/C (compound 0.0316 µM) was 97% and 105%. In addition, under “compound 0.1 µM”, the viability, T/C was 94.9% and 95.8%. For the same molecule, the viability, T/C (compound 0.316 µM) was 103% and 96.8%. In addition, the viability, T/C (compound 1 µM) is 105% and 114%. Where the note is “compound 3.16 µM”, the viability, T/C is 104% and 102%. In addition, where the note is “compound 10 µM”, the viability, T/C was 82.6% and 77.8%.
As for `COc1cccc2c1C(=O)c1c(O)c3c(c(O)c1C2=O)CC(O)(C(=O)CO)CC3OC1CC(N)C(O)C(C)O1` (configuration not stated), the IC50 was 0.574 µM and 0.566 µM. The viability, T/C (compound 0.0316 µM) is 98.8% and 100%. Moreover, the viability, T/C (compound 0.1 µM) is 102% and 91.6%. Also, the viability, T/C (compound 0.316 µM) is 67.6% and 66.2%. Moreover, for the setting “compound 1 µM”, the viability, T/C was 35% and 37.2%. In addition, the viability, T/C (compound 3.16 µM) is 7.33% and 9.65%. In addition, where the note is “compound 10 µM”, the viability, T/C was 19.4% and 24.4%.
In the case of `Nc1ccccc1NC(=O)c1ccc(CNC(=O)OCc2cccnc2)cc1`, the IC50 was 6.87 µM and 7.34 µM. Further, the viability, T/C (compound 0.0316 µM) is 83.9% and 90.3%. Also, the viability, T/C (compound 0.1 µM) is 105% and 96.6%. Also, under “compound 0.316 µM”, the viability, T/C was 94.3% and 91.9%. For the same molecule, the viability, T/C (compound 1 µM) is 92.6% and 90.3%. Also, for the setting “compound 3.16 µM”, the viability, T/C is 88.2% and 84.8%. Moreover, the viability, T/C (compound 10 µM) was 31.5% and 37%.
Consider `Nc1ccn(C2OC(CO)C(O)C2(F)F)c(=O)n1` (configuration not stated), for which the IC50 was < 0.0316 µM and 0.0477 µM. For the same molecule, where the note is “compound 0.0316 µM”, the viability, T/C is 46.4% and 56.8%. In addition, the viability, T/C (compound 0.1 µM) was 30.6% and 37.9%. For the same molecule, the viability, T/C (compound 0.316 µM) is 29.7% and 32.5%. For the setting “compound 1 µM”, the viability, T/C is 31.6% and 32.8%. Further, where the note is “compound 3.16 µM”, the viability, T/C is 31.5% and 31.4%. Where the note is “compound 10 µM”, the viability, T/C was 26.7% and 30.9%.
For `O=C(c1cc(Cc2n[nH]c(=O)c3ccccc23)ccc1F)N1CCN(C(=O)C2CC2)CC1`, the 50% inhibitory concentration (IC50) is more than 10 µM. In addition, the viability, T/C (compound 0.0316 µM) was 100% and 107%. Moreover, for the setting “compound 0.1 µM”, the viability, T/C is 97.7% and 89.2%. For the same molecule, the viability, T/C (compound 0.316 µM) was 88.7% and 107%. For the setting “compound 1 µM”, the viability, T/C was 98.2% and 104%. Also, where the note is “compound 3.16 µM”, the viability, T/C was 98.8% and 108%. Further, where the note is “compound 10 µM”, the viability, T/C is 89.5% and 94.8%.
For the molecule `O=c1[nH]cc(F)c(=O)[nH]1`, the IC50 was more than 10 µM. The viability, T/C (compound 0.0316 µM) is 95.5% and 88.4%. The viability, T/C (compound 0.1 µM) is 96.6% and 84.4%. Moreover, the viability, T/C (compound 0.316 µM) was 95.6% and 87.4%. For the same molecule, the viability, T/C (compound 1 µM) is 96.9% and 95.8%. Further, the viability, T/C (compound 3.16 µM) was 96.6% and 96%. Under “compound 10 µM”, the viability, T/C was 88.5% and 82.3%.

Values taken from PubChem BioAssay AID2060617 (Molecular Pharmacology Branch, DTP, NCI, 2025).
